Consider one molecule from patent US20250040914A1, “SYSTEMS AND METHODS FOR FOCUSED ULTRASOUND-ENABLED LIQUID BIOPSY” (Washington University, priority 2021, published 2025).

This data set can be described thus: FUS-BBBO delivery of Evans Blue to the mouse brain under closed-loop feedback control (fluorescence imaging of brain slices). In kind it is in vivo, Swiss mice. The following applies: for drug delivery area (average): area with fluorescence higher than 10 dB above background of brain tissue; for fluorescence intensity of the delivered Evans Blue, increase relative to the 0.5 dB group: brainstem ROI, 30 μL of 4% Evans Blue i.v. after FUS, 30 min after sonication. The protocol:
25 Swiss mice (8-10 weeks, ˜25 g body weight, female, Charles River Laboratory, Wilmington, MA, USA) were randomly assigned into five groups (n=5 for each group) to evaluate five different TCLs using the disclosed algorithm. Swiss mice (8-10 weeks, ˜25 g body weight, female, Charles River Laboratory, Wilmington, MA, USA) were housed in a room maintained at 22° C. and 55% relative humidity, with a 12-h/12-h light/dark cycle and access to standard laboratory chow and water. […] Four Swiss mice were selected to evaluate an existing closed-loop feedback control algorithm with the TCL defined based on the detection of sub-harmonics. During all experiments, mice were anesthetized with 1.5-2% isoflurane and stabilized using a stereotaxic apparatus (Kopf, Tujunga, CA, USA). A heating pad with a temperature kept at ˜38° C. was used to maintain the mouse's body temperature. Mice were prepared for FUS sonication by removing fur on top of the head with a depilatory cream (Nair, Church & Dwight Co., NJ, USA) and coupled to a water container using ultrasound gel. A catheter was placed into the tail vein for microbubbles and Evans blue injection.
A microbubble contrast agent (Definity, Lantheus Medical Imaging, North Billerica, MA) was diluted using sterile saline to a final concentration of approximately 8×10^8 microbubbles per mL. A bolus of diluted microbubble contrast agent (volume=30 μL) was injected intravenously into each mouse through a tail vein catheter. The injection was performed using a computer-controlled syringe pump (NE-1600; New Era Pump Systems Inc.). Microbubbles infusion was started 15 s before FUS sonication to allow microbubbles to flow through the tail vein catheter and reach the mouse brain. The infusion lasted until the end of sonication at a constant rate of 12.8 μL/min. All mice were treated by FUS with output pressure controlled in real-time using the disclosed PCD-based closed-loop feedback control algorithm. The treatment procedure followed a two-step process. A representative example of sonication sequence and detected cavitation level is illustrated in FIG. 20.
A baseline stable cavitation (SC) level was established for each mouse with dummy FUS sonication after injecting the microbubbles. FUS sonication was performed using a pulse repetition frequency of 2 Hz, a pulse length of 6.7 ms burst (i.e., duty cycle: 1.33%), and a sonication duration of 5 s. The output pressure of FUS was 0.2 MPa (all pressures reported were the peak negative pressures calibrated in water). This pressure was selected because it was the lowest pressure at which the microbubble cavitation signal was higher than the noise level without microbubble injection and lower than the pressures needed to induce BBB disruption. During the sonication by each FUS pulse, acoustic emission from microbubbles was recorded by the PCD transducer and processed by a Fast-Fourier transform (FFT) algorithm. SC level was calculated by summing the magnitude of the spectrum within a ±0.02 MHz bandwidth at the third harmonic (i.e., 4.5 MHz) of the FUS transducer. The third harmonic emission was chosen because it was at the center frequency of the PCD transducer. Ten PCD signals were acquired, and the average of SC levels calculated from these ten signals was used to define the baseline SC level.
After establishing the baseline SC level as described above, the mice were further subjected to FUS sonication using the FUS-BBBO with real-time feedback control disclosed herein. During FUS sonication with microbubbles infusion, cavitation was monitored by PCD in real-time, and a custom closed-loop feedback control algorithm was used to control the SC level to be at different TCLs defined to be 0.5 dB, 1 dB, 2 dB, 3 dB, or 4 dB above the baseline SC level. […]

Structures are written as SMILES.

Take `Cc1cc(-c2ccc(/N=N/c3ccc4c(S(=O)(=O)O)cc(S(=O)(=O)O)c(N)c4c3O)c(C)c2)ccc1/N=N/c1ccc2c(S(=O)(=O)O)cc(S(=O)(=O)O)c(N)c2c1O` [Evans Blue]: the “drug delivery area (average)” value amounted to 9.6 mm^2 (TCL 0.5 dB) and 112.8 mm^2 (TCL 3 dB). Also, the “fluorescence intensity of the delivered Evans Blue, increase relative to the 0.5 dB group” value by setting is: (TCL 1 dB above baseline SC level) 2.4 fold; (TCL 2 dB above baseline SC level) 5.3 fold; (TCL 3 dB above baseline SC level) 8.2 fold. For the setting “TCL 3 dB versus 0.5 dB”, the “drug delivery area, increase as TCL was raised from 0.5 dB to 3 dB” value is 11.7 fold. For the same molecule, the “fluorescence intensity and drug delivery area with respect to the values at a TCL of 3 dB” value (TCL 4 dB) is “slightly decreased”.
